For one molecule, IC90 results are on record in patent US6127375A, “4,4-disubstituted-3,4-dihydro-2(1H)-quinazolinthiones useful as HIV reverse transcriptase inhibitors” (Dupont Pharmaceuticals Company, priority 1999, dated 2000).

This assay relates to HIV-1 (RF). The assay can be described thus: HIV RNA Assay: Microplate Based Compound Evaluation in HIV-1 Infected MT-2 Cells. The format is cell-based. The conditions noted are these: Human immunodeficiency virus 1, MT2, 72 h; HIV-1 (RF) in MT-2 cells, 3 days at 37° C.; value to which virus inoculum was standardized (~3×10^5 PFU per assay well); read-out: IC90 value (concentration of compound required to reduce the HIV RNA level by 90%). As for the experimental part: Plasmid pDAB 72 containing both gag and pol sequences of BH10 (bp 113-1816) cloned into PTZ 19R was prepared according to Erickson-Viitanen et al. AIDS Research and Human Retroviruses 1989, 5, 577. The plasmid was linearized with Bam HI prior to the generation of in vitro RNA transcripts using the Riboprobe Gemini system II kit (Promega) with T7 RNA polymerase. Synthesized RNA was purified by treatment with RNase free DNAse (Promega), phenol-chloroform extraction, and ethanol precipitation. RNA transcripts were dissolved in water, and stored at -70° C. The concentration of RNA was determined from the A260.
Biotinylated capture probes were purified by HPLC after synthesis on an Applied Biosystems (Foster City, Calif.) DNA synthesizer by addition of biotin to the 5' terminal end of the oligonucleotide, using the biotin-phosphoramidite reagent of Cocuzza, Tet. Lett. 1989, 30, 6287. […]
MT-2 and MT-4 cells were maintained in RPMI 1640 supplemented with 5% fetal calf serum (FCS) for MT-2 cells or 10% FCS for MT-4 cells, 2 mM L-glutamine and 50 μg/mL gentamycin, all from Gibco. […] Infectious titers of HIV-1(RF) stocks were 1-3×10^7 PFU (plaque forming units)/mL as measured by plaque assay on MT-2 cells (see below). […]

SMILES strings stand for the structures. In brackets after ≈: the same amount, converted by molar mass.

For the molecule `Nc1ccn([C@H]2CC[C@@H](CO)O2)c(=O)n1` [ddC, 2',3'-dideoxycytidine], the IC90 was found to be 0.2 µg/mL (≈ 0.947 µM).
